Values of other authors, collected in US20080261937A1, “PHARMACEUTICAL COMPOSITIONS AND METHOD FOR TREATING PEDIATRIC HYPOGONADISM” (priority 2007, published 2008).

Compound: C[C@]12CC[C@H]3[C@@H](CCC4=CC(=O)CC[C@@]43C)[C@@H]1CC[C@@H]2O [testosterone]
- bound to proteins in the blood (circulating testosterone): 98%
- share bound weakly to albumin (in males): 60%
- share of binding to sex hormone binding globulin (SHBG) (in males): approximately 40%
